Where “and” joins values, the source holds several entries; their conditions need not be identical. Identical values can stand only once. Like-named read-outs stand apart in the source and are kept apart here.
Columns and labels:
[1] = tested on: Staphylococcus epidermidis; experiment: Growth on agar plates containing sodium surfactant; format: cell-based
[2] = tested on: Streptococcus bovis; experiment: Growth on agar plates containing sodium surfactant; format: cell-based
[3] = tested on: Staphylococcus aureus; experiment: Growth on agar plates containing sodium surfactant; format: cell-based; note: test concentration or dose not given here
[4] = tested on: Enterococcus fecalis; experiment: Growth on agar plates containing sodium surfactant; format: cell-based; note: test concentration or dose not given here
[5] = tested on: Bacillus subtilis; experiment: Growth on agar plates containing sodium surfactant; format: cell-based; note: test concentration or dose not given here
[6] = tested on: Streptococcus agalactiae; experiment: Growth on agar plates containing sodium surfactant; format: cell-based; note: test concentration or dose not given here
[7] = tested on: Streptococcus viridans; experiment: Growth on agar plates containing sodium surfactant; format: cell-based
[8] = tested on: Micrococcus luteus; experiment: Growth on agar plates containing sodium surfactant; format: cell-based
[9] = tested on: Streptococcus pyogenes; experiment: Growth on agar plates containing sodium surfactant; format: cell-based
[10] = tested on: Gram-negative bacteria; format: cell-based
[11] = tested on: Streptococcus pneumoniae; format: cell-based
[12] = tested on: Gram-positive bacteria; format: cell-based
[13] = tested on: B. subtilis; format: cell-based, Bacillus subtilis
[14] = tested on: S. aureus; format: cell-based, Staphylococcus aureus
[15] = tested on: Candida tropicalis; format: cell-based
[16] = tested on: S. aureus; experiment: S. aureus challenged by silver surfactants in laboratory acrylic clearcoat; format: cell-based, Staphylococcus aureus; conditions: 24 h contact time; for surviving bacteria (growth): laboratory solvent borne acrylate clearcoat; for surviving bacteria (growth): key: A minus sign (−) denotes no growth; a plus sign (+) denotes confluent growth; a capital P (P) denotes particle growth
[17] = tested on: E. coli; experiment: E. coli challenged by silver surfactants in laboratory acrylic paint; format: cell-based, Escherichia coli; conditions: 24 h contact time; for surviving bacteria (growth): laboratory solvent borne acrylate paint coating; for surviving bacteria (growth): key: A minus sign (−) denotes no growth; a plus sign (+) denotes confluent growth; a capital P (P) denotes particle growth
[18] = tested on: E. coli; experiment: E. coli challenged by silver surfactants in commercial acrylic paint; format: cell-based, Escherichia coli; conditions: 24 h contact time; for surviving bacteria (growth): commercial solvent borne acrylate paint coating; for surviving bacteria (growth): key: A minus sign (−) denotes no growth; a plus sign (+) denotes confluent growth; a capital P (P) denotes particle growth
[19] = tested on: E. coli; experiment: E. coli challenged by silver surfactants in commercial 2K epoxy paint; format: cell-based, Escherichia coli; conditions: 24 h contact time; for surviving bacteria (growth): commercial 2K epoxy paint coating
[20] = tested on: E. coli; experiment: E. coli challenged by silver surfactants in commercial alkyd paint; format: cell-based, Escherichia coli; conditions: alkyd resin paint coating, 24 h contact time; note: key: A minus sign (−) denotes no growth; a plus sign (+) denotes confluent growth; a capital P (P) denotes particle growth

Molecule: O=C(CC(C(=O)OC1CCCCC1)S(=O)(=O)[O-])OC1CCCCC1.[Na+] (stereo not drawn) [Compound S5]
- Survival: No Growth/Full Growth ([1]; agar plates with sodium surfactant, strain EM3/ATCC12228, replicates 1-2 or 1-3): +
- Survival: No Growth/Full Growth ([2]; agar plates with sodium surfactant, strain EM12, replicates 1-2 or 1-3): −
- Survival: No Growth/Full Growth ([3]; agar plates with sodium surfactant, strain ATCC6538, replicates 1-2 or 1-3): +
- Survival: No Growth/Full Growth ([3]; agar plates with sodium surfactant, strain EM24/ATCC25923, replicates 1-2 or 1-3): +
- Survival: No Growth/Full Growth ([4]; agar plates with sodium surfactant, strain EM19, first line, replicates 1-2 or 1-3): +
- Survival: No Growth/Full Growth ([4]; agar plates with sodium surfactant, strain EM19, second line, replicates 1-2 or 1-3): +
- Survival: No Growth/Full Growth ([5]; agar plates with sodium surfactant, strain ATCC33, replicates 1-2 or 1-3): − and +
- Survival: No Growth/Full Growth ([5]; agar plates with sodium surfactant, strain EM27, replicates 1-2 or 1-3): +
- Survival: No Growth/Full Growth ([6]; agar plates with sodium surfactant, strain EM13, replicates 1-2 or 1-3): − and +
- Survival: No Growth/Full Growth ([7]; agar plates with sodium surfactant, strain EM8, replicates 1-2 or 1-3): +
- Survival: No Growth/Full Growth ([8]; agar plates with sodium surfactant, strain EM17, replicates 1-2 or 1-3): − (2×) and +
- Survival: No Growth/Full Growth ([9]; agar plates with sodium surfactant, strain EM14, replicates 1-2 or 1-3): −

Molecule: CCCCCCCCCCCCCOC(=O)CC(C(=O)OCCCCCCCCCCCCC)S(=O)(=O)[O-].[Na+] (stereo not drawn) [Compound S6]
- Survival: No Growth/Full Growth [1]: +
- Survival: No Growth/Full Growth [2]: −
- Survival: No Growth/Full Growth [3]: +
- Survival: No Growth/Full Growth [4]: +
- Survival: No Growth/Full Growth [5]: − and +
- Survival: No Growth/Full Growth [6]: − and +
- Survival: No Growth/Full Growth [7]: +
- Survival: No Growth/Full Growth [8]: + and −
- Survival: No Growth/Full Growth [9]: −

Molecule: CCCCC(CC)COC(=O)CC(C(=O)OCC(CC)CCCC)S(=O)(=O)[O-].[Na+] (stereo not drawn) [sodium bis[2-ethylhexyl]sulfosuccinate]
- Survival: No Growth/Full Growth [1]: −
- Survival: No Growth/Full Growth [2]: −
- response of Gram-negative bacteria [10]: resistant
- Survival: No Growth/Full Growth [3]: −
- Survival: No Growth/Full Growth [4]: −
- Survival: No Growth/Full Growth [5]: −
- Survival: No Growth/Full Growth [6]: −
- Survival: No Growth/Full Growth [11]: −
- effect on all Gram-positive bacteria tested [12]: killed
- killing of B. subtilis [13]: killed all
- Survival: No Growth/Full Growth [7]: −
- killing of S. aureus [14]: killed all
- Survival: No Growth/Full Growth [15]: −
- effect on the yeast Candida tropicalis [15]: killed
- Survival: No Growth/Full Growth [8]: −
- Survival: No Growth/Full Growth [9]: −

Molecule: silver linearalkanebenzene sulfonate [AgLABS]
- silver level at which partial growth is observed ([16]; laboratory acrylic clearcoat): 0.012 % Ag w/w and 0.006 % Ag w/w
- surviving bacteria (growth) ([16]; 0.0012 weight % Ag in coating): −
- surviving bacteria (growth) ([16]; 0.003 weight % Ag in coating): −
- surviving bacteria (growth) ([16]; 0.03 weight % Ag in coating): −
- surviving bacteria (growth) ([16]; 0.06 weight % Ag in coating): −
- surviving bacteria (growth) ([16]; 0.12 weight % Ag in coating): −
- silver level with partial inhibition (only partial growth) ([17]; laboratory acrylic paint): 0.03%
- surviving bacteria (growth) ([17]; 0.0012 weight % Ag in coating): +
- surviving bacteria (growth) ([17]; 0.003 weight % Ag in coating): +
- surviving bacteria (growth) ([17]; 0.006 weight % Ag in coating): +
- surviving bacteria (growth) ([17]; 0.012 weight % Ag in coating): +
- surviving bacteria (growth) ([17]; 0.06 weight % Ag in coating): −
- surviving bacteria (growth) ([17]; 0.12 weight % Ag in coating): −
- silver level partially effective ([18]; commercial acrylic paint): 0.03 % Ag w/w
- surviving bacteria (growth) ([18]; 0.0012 weight % Ag in coating): +
- surviving bacteria (growth) ([18]; 0.003 weight % Ag in coating): +
- surviving bacteria (growth) ([18]; 0.006 weight % Ag in coating): +
- surviving bacteria (growth) ([18]; 0.012 weight % Ag in coating): +
- surviving bacteria (growth) ([18]; 0.06 weight % Ag in coating): −
- surviving bacteria (growth) ([18]; 0.12 weight % Ag in coating): −
- surviving bacteria (growth) ([19]; 0.0012 weight % Ag in coating): +
- surviving bacteria (growth) ([19]; 0.003 weight % Ag in coating): +
- surviving bacteria (growth) ([19]; 0.006 weight % Ag in coating): +
- surviving bacteria (growth) ([19]; 0.012 weight % Ag in coating): +
- surviving bacteria (growth) ([19]; 0.03 weight % Ag in coating): −
- surviving bacteria (growth) ([19]; 0.06 weight % Ag in coating): −
- surviving bacteria (growth) ([19]; 0.12 weight % Ag in coating): −
- silver level giving complete inhibition of growth ([19]; commercial 2K epoxy paint): 0.03 % w/w
- surviving bacteria (growth) ([20]; 0.0012 weight % Ag in coating): +
- surviving bacteria (growth) ([20]; 0.003 weight % Ag in coating): +
- surviving bacteria (growth) ([20]; 0.006 weight % Ag in coating): +
- surviving bacteria (growth) ([20]; 0.012 weight % Ag in coating): +
- surviving bacteria (growth) ([20]; 0.03 weight % Ag in coating): −
- surviving bacteria (growth) ([20]; 0.06 weight % Ag in coating): −
- surviving bacteria (growth) ([20]; 0.12 weight % Ag in coating): −

Source: US8574608B2, “Bactericidal silver surfactant delivery into coating and polymer compositions” (Eastern Michigan Universtity, priority 2007, dated 2013)
